Results taken from US20260285850A1, “SUBSTITUTED OXAZOLIDINONES AND IMIDAZOLINONES AS HERBICIDES” (FMC CORPORATION, priority 2023, published 2026).

Tests used:
Type in all cases: in vivo
[1] = system: ragweed (common ragweed, Ambrosia artemisiifolia); assay: Test A postemergence application, visual injury rating 0-100; conditions: Postemergence, 10 days, 0 is no effect, 100 is complete control
Outline: (§1)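 Scale 0–100 (no effect to complete control), visual, versus untreated controls, read 10 days after application. Application: preemergence directed spray onto seeded loam–sand soil, or postemergence to young plants; formulation in non-phytotoxic solvent with surfactant.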

[2] = system: green foxtail (Setaria viridis); assay: as above; conditions: Postemergence, 10 days, 0 is no effect, 100 is complete control
Outline: as §1

kochia (Bassia scoparia) [3] = assay: as above; conditions: Postemergence, 10 days, 0 is no effect, 100 is complete control
Outline: as §1

corn (Zea mays) [4] = assay: as above; conditions: Postemergence, 10 days, 0 is no effect, 100 is complete control
Outline: as §1

[5] = system: ryegrass, Italian (italian ryegrass, Lolium multiflorum); assay: as above; conditions: Postemergence, 10 days, 0 is no effect, 100 is complete control
Outline: as §1

[6] = system: wheat (Triticum aestivum); assay: as above; conditions: Postemergence, 10 days, 0 is no effect, 100 is complete control
Outline: as §1

soybean (Glycine max) [7] = assay: as above; conditions: Postemergence, 10 days, 0 is no effect, 100 is complete control
Outline: as §1

[8] = system: galium (catchweed bedstraw, Galium aparine); assay: as above; conditions: Postemergence, 10 days, 0 is no effect, 100 is complete control
Outline: as §1

[9] = system: blackgrass (Alopecurus myosuroides); assay: as above; conditions: Postemergence, 10 days, 0 is no effect, 100 is complete control
Outline: as §1

[10] = system: oat, wild (wild oat, Avena fatua); assay: as above; conditions: Postemergence, 10 days, 0 is no effect, 100 is complete control
Outline: as §1

[11] = system: palmer (palmer amaranth, palmer pigweed, Amaranthus palmeri); assay: as above; conditions: Postemergence, 10 days, 0 is no effect, 100 is complete control
Outline: as §1

[12] = system: horseweed (Erigeron canadensis); assay: as above; conditions: Postemergence, 10 days, 0 is no effect, 100 is complete control
Outline: as §1

[13] = system: barnyardgrass (Echinochloa crus-galli); assay: as above; conditions: Postemergence, 10 days, 0 is no effect, 100 is complete control
Outline: as §1

[14] = system: barnyardgrass (Echinochloa crusgalli); assay: Test B flooded paddy test, visual plant response rating 0-100; conditions: 250 g ai/ha, Flood, applied to paddy water, evaluated after 13 days
Outline: (§2)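 Greenhouse, 13 d. Seedlings at 2-leaf stage, pots flooded to 3 cm, compound delivered into floodwater, water level held constant. Evaluated visually relative to controls.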

[15] = system: ducksalad (Heteranthera limosa); assay: as above; conditions: 250 g ai/ha, Flood, applied to paddy water, evaluated after 13 days
Outline: as §2

[16] = system: sedge, umbrella (small-flower umbrella sedge, Cyperus difformis); assay: as above; conditions: 250 g ai/ha, Flood, applied to paddy water, evaluated after 13 days
Outline: as §2

rice (Oryza sativa) = assay: as above; conditions: 250 g ai/ha, Flood, applied to paddy water, evaluated after 13 days
Outline: as §2

[17] = system: ragweed (common ragweed, Ambrosia artemisiifolia); assay: Test A preemergence soil spray, visual injury rating 0-100; conditions: 10 days, 0 = no effect, 100 = complete control
Outline: as §1

[18] = system: green foxtail (Setaria viridis); assay: as above; conditions: 10 days, 0 = no effect, 100 = complete control
Outline: as §1

kochia (Bassia scoparia) [19] = assay: as above; conditions: 10 days, 0 = no effect, 100 = complete control
Outline: as §1

corn (Zea mays) [20] = assay: as above; conditions: 10 days, 0 = no effect, 100 = complete control
Outline: as §1

[21] = system: ryegrass, Italian (italian ryegrass, Lolium multiflorum); assay: as above; conditions: 10 days, 0 = no effect, 100 = complete control
Outline: as §1

[22] = system: wheat (Triticum aestivum); assay: as above; conditions: 10 days, 0 = no effect, 100 = complete control
Outline: as §1

soybean (Glycine max) [23] = assay: as above; conditions: 10 days, 0 = no effect, 100 = complete control
Outline: as §1

[24] = system: blackgrass (Alopecurus myosuroides); assay: as above; conditions: 10 days, 0 = no effect, 100 = complete control
Outline: as §1

[25] = system: oat, wild (wild oat, Avena fatua); assay: as above; conditions: 10 days, 0 = no effect, 100 = complete control
Outline: as §1

[26] = system: palmer (palmer amaranth, palmer pigweed, Amaranthus palmeri); assay: as above; conditions: 10 days, 0 = no effect, 100 = complete control
Outline: as §1

[27] = system: barnyardgrass (Echinochloa crus-galli); assay: as above; conditions: 10 days, 0 = no effect, 100 = complete control
Outline: as §1

CSCCOC(=O)C1C=CC(NC(=O)C2(C)CN(c3cc(Cl)cc(Cl)c3)C(=O)O2)C1 (stereo not shown) [Compound 45]
30: Soybean plant response rating (0 to 100 scale) (soybean (Glycine max) [23]; 125 g ai/ha)
70: Ragweed plant response rating (0 to 100 scale) ([1]; 125 g ai/ha) | Galium plant response rating (0 to 100 scale) ([8]; 125 g ai/ha) | Galium plant response rating (0 to 100 scale) ([8]; 500 g ai/ha) | Ragweed plant response rating (0 to 100 scale) ([17]; 500 g ai/ha)
80: Ragweed plant response rating (0 to 100 scale) ([1]; 500 g ai/ha) | Foxtail, Green plant response rating (0 to 100 scale) ([2]; 125 g ai/ha) | Kochia plant response rating (0 to 100 scale) (kochia (Bassia scoparia) [3]; 125 g ai/ha) | Kochia plant response rating (0 to 100 scale) (kochia (Bassia scoparia) [3]; 500 g ai/ha) | Ryegrass, Italian plant response rating (0 to 100 scale) ([5]; 125 g ai/ha) | Ryegrass, Italian plant response rating (0 to 100 scale) ([5]; 500 g ai/ha) | Horseweed plant response rating (0 to 100 scale) ([12]; 125 g ai/ha) | Horseweed plant response rating (0 to 100 scale) ([12]; 500 g ai/ha) | Oat, Wild plant response rating (0 to 100 scale) ([25]; 125 g ai/ha)
100: Corn plant response rating (0 to 100 scale) (corn (Zea mays) [4]; 125 g ai/ha) | Corn plant response rating (0 to 100 scale) (corn (Zea mays) [4]; 500 g ai/ha) | Blackgrass plant response rating (0 to 100 scale) ([9]; 125 g ai/ha) | Blackgrass plant response rating (0 to 100 scale) ([9]; 500 g ai/ha) | Amaranth, Palmer / Pigweed, Palmer plant response rating (0 to 100 scale) ([11]; 125 g ai/ha) | Amaranth, Palmer / Pigweed, Palmer plant response rating (0 to 100 scale) ([11]; 500 g ai/ha) | Barnyardgrass plant response rating (0 to 100 scale) ([13]; 125 g ai/ha) | Barnyardgrass plant response rating (0 to 100 scale) ([13]; 500 g ai/ha) | Plant response rating, Ducksalad (0 to 100 scale, 0 is no effect and 100 is complete control) [15] | Plant response rating, Sedge, Umbrella (0 to 100 scale, 0 is no effect and 100 is complete control) [16] | Foxtail, Green plant response rating (0 to 100 scale) ([18]; 500 g ai/ha) | Kochia plant response rating (0 to 100 scale) (kochia (Bassia scoparia) [19]; 500 g ai/ha) | Amaranth, Palmer plant response rating (0 to 100 scale) ([26]; 125 g ai/ha) | Amaranth, Palmer plant response rating (0 to 100 scale) ([26]; 500 g ai/ha) | Barnyardgrass plant response rating (0 to 100 scale) ([27]; 125 g ai/ha) | Barnyardgrass plant response rating (0 to 100 scale) ([27]; 500 g ai/ha)
75: Plant response rating, Barnyardgrass (0 to 100 scale, 0 is no effect and 100 is complete control) [14]
15: Plant response rating, Rice (0 to 100 scale, 0 is no effect and 100 is complete control) (rice (Oryza sativa))
90: Foxtail, Green plant response rating (0 to 100 scale) ([2]; 500 g ai/ha) | Wheat plant response rating (0 to 100 scale) ([6]; 125 g ai/ha) | Wheat plant response rating (0 to 100 scale) ([6]; 500 g ai/ha) | Soybean plant response rating (0 to 100 scale) (soybean (Glycine max) [7]; 125 g ai/ha) | Soybean plant response rating (0 to 100 scale) (soybean (Glycine max) [7]; 500 g ai/ha) | Oat, Wild plant response rating (0 to 100 scale) ([10]; 125 g ai/ha) | Oat, Wild plant response rating (0 to 100 scale) ([10]; 500 g ai/ha) | Foxtail, Green plant response rating (0 to 100 scale) ([18]; 125 g ai/ha) | Ryegrass, Italian plant response rating (0 to 100 scale) ([21]; 125 g ai/ha) | Ryegrass, Italian plant response rating (0 to 100 scale) ([21]; 500 g ai/ha) | Wheat plant response rating (0 to 100 scale) ([22]; 125 g ai/ha) | Wheat plant response rating (0 to 100 scale) ([22]; 500 g ai/ha) | Blackgrass plant response rating (0 to 100 scale) ([24]; 125 g ai/ha) | Blackgrass plant response rating (0 to 100 scale) ([24]; 500 g ai/ha) | Oat, Wild plant response rating (0 to 100 scale) ([25]; 500 g ai/ha)
60: Corn plant response rating (0 to 100 scale) (corn (Zea mays) [20]; 500 g ai/ha) | Soybean plant response rating (0 to 100 scale) (soybean (Glycine max) [23]; 500 g ai/ha)
20: Ragweed plant response rating (0 to 100 scale) ([17]; 125 g ai/ha) | Kochia plant response rating (0 to 100 scale) (kochia (Bassia scoparia) [19]; 125 g ai/ha) | Corn plant response rating (0 to 100 scale) (corn (Zea mays) [20]; 125 g ai/ha)
